The results in this text go back to patent publication US20250221410A1, “SUBSTITUTED 2-C-AZINES AND SALTS THEREOF, AND USE THEREOF AS HERBICIDAL ACTIVE SUBSTANCES” (BAYER AKTIENGESELLSCHAFT, priority 2022, published 2025).

SMILES strings stand for the structures.

Common to all, as to type: in vivo
Test [1] concerns ABUTH: Abutilon theophrasti. Nature of the test: Post-emergence herbicidal efficacy at 1280 g/ha, ABUTH. The settings on record: rated visually after about 3 weeks vs untreated controls, 100% = plants have died, 0% = like control plants. In short, it runs like this:
(§1)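 Greenhouse post-emergence spray: one-leaf stage, 2–3 wk after sowing; WP/EC as aqueous suspension/emulsion + 0.5% additive, 600 L/ha water. Visual % activity vs untreated at ~3 wk; 100% = dead, 0% = as control.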

Test [2] has as its system AMARE: Amaranthus retroflexus. Briefly: Post-emergence herbicidal efficacy at 80 g/ha, AMARE. The settings on record: visual rating about 3 weeks after treatment vs untreated controls. In short, it runs like this:
(§2)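 Visual percent activity versus untreated plants (100% = plants died) was scored roughly 3 weeks after treatment. Plants grew in greenhouse pots of sandy loam and got a post-emergence spray at one-leaf stage: WP or EC compound with 0.5% additive, 600 l/ha water.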

For test [3], the system named is VERPE: Veronica persica. Briefly: Post-emergence herbicidal efficacy at 80 g/ha, VERPE. The settings on record: visual rating about 3 weeks after treatment vs untreated controls. In short, it runs like this: as §2
Test [4] deals with KCHSC: Kochia scoparia. Briefly: Pre-emergence herbicide efficacy at 1280 g/ha, KCHSC. The settings on record: visual scoring after about 3 weeks vs untreated controls. In short, it runs like this:
(§3)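 Weed seeds were sown and covered with soil in pots, then treated on the soil surface with formulated compound (WP or EC, 0.5% additive, 600 L/ha water). Visual % damage relative to untreated pots was rated about 3 weeks later under greenhouse conditions, 0% meaning no effect and 100% plant death.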

The subject of test [5] is LOLRI: Lolium rigidum. Briefly: Pre-emergence herbicide efficacy at 1280 g/ha, LOLRI. The note with it: visual scoring after about 3 weeks vs untreated controls. In short, it runs like this: as §3
Test [6] concerns KCHSC: Kochia scoparia. Nature of the test: Pre-emergence herbicide efficacy at 80 g/ha, KCHSC. The settings on record: scored visually after about 3 weeks. An excerpt:
(§4) Seeds of monocotyledonous and dicotyledonous weed plants and crop plants were placed in plastic or organic planting pots and covered with soil. The compounds of the invention, formulated in the form of wettable powders (WP) or as emulsion concentrates (EC), were then applied to the surface of the covering soil as aqueous suspension or emulsion with addition of 0.5% additive at a water application rate equivalent to 600 l/ha. After the treatment, the pots were placed in a greenhouse and kept under good growth conditions for the test plants. After about 3 weeks, the efficacy of the preparations was scored visually in comparison with untreated controls as percentages. For example, 100% activity=the plants have died, 0% activity=like control plants. Tables D1 to D12 below show the effects of selected compounds of the general formula (I) according to Table 1 on various harmful plants and an application rate corresponding to 80 g/ha, which were obtained by the experimental procedure mentioned above.

The test system of test [7] is STEME: Stellaria media. Briefly: Post-emergence herbicidal efficacy at 1280 g/ha, STEME. The settings on record: visual rating about 3 weeks after treatment vs untreated controls. The method in brief:
as §1

For test [8], the system named is ECHCG: Echinochloa crus-galli. Nature of the test: Pre-emergence herbicide efficacy at 1280 g/ha, ECHCG. The settings on record: visual scoring after about 3 weeks vs untreated controls. The method in brief:
as §3

The test system of test [9] is DIGSA: Digitaria sanguinalis. Nature of the test: Pre-emergence herbicide efficacy at 1280 g/ha, DIGSA. The note with it: visual scoring after about 3 weeks vs untreated controls. In short, it runs like this: as §3
For test [10], the system named is ALOMY: Alopecurus myosuroides. Briefly: Pre-emergence herbicide efficacy at 80 g/ha, ALOMY. The settings on record: scored visually after about 3 weeks.
Description: as §4

Test [11] deals with ALOMY: Alopecurus myosuroides. Nature of the test: Post-emergence herbicidal efficacy at 1280 g/ha, ALOMY. The note with it: rated visually after about 3 weeks vs untreated controls, 100% = plants have died, 0% = like control plants. Here is the method: (§5) Seeds of mono- and dicotyledonous weed plants were placed in plastic pots in sandy loam soil (doubly sown with in each case one species of mono- or dicotyledonous weed plants per pot), covered with soil and cultivated in a greenhouse under controlled growth conditions. 2 to 3 weeks after sowing, the test plants were treated at the one-leaf stage. The compounds of the invention, formulated in the form of wettable powders (WP) or as emulsion concentrates (EC), were applied to the green parts of the plants as aqueous suspension or emulsion with addition of 0.5% additive at a water application rate equivalent to 600 litres per hectare. After the test plants had been kept in the greenhouse under optimum growth conditions for about 3 weeks, the activity of the preparations was rated visually in comparison to untreated controls. For example, 100% activity=the plants have died, 0% activity=like control plants. Tables A1 to A12 below show the effects of selected compounds of the general formula (I) according to Table 1 on various harmful plants and at an application rate corresponding to 1280 g/ha, which were obtained by the trial procedure specified above.

Test [12] deals with DIGSA: Digitaria sanguinalis. Briefly: Pre-emergence herbicide efficacy at 80 g/ha, DIGSA. The settings on record: scored visually after about 3 weeks. In short, it runs like this:
(§6)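 Pre-emergence treatment: aqueous suspension or emulsion (0.5% additive, 600 l/ha water) applied at 80 g/ha to the covering soil over sown seeds. Visual percent-damage rating against untreated plants followed after about 3 greenhouse weeks, 0% meaning unaffected and 100% meaning dead.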

Test [13] concerns VERPE: Veronica persica. Briefly: Pre-emergence herbicide efficacy at 80 g/ha, VERPE. The settings on record: scored visually after about 3 weeks. In short, it runs like this: as §6
For test [14], the system named is VERPE: Veronica persica. Briefly: Pre-emergence herbicide efficacy at 1280 g/ha, VERPE. The note with it: visual scoring vs untreated controls. The method in brief: as §3
The subject of test [15] is AMARE: Amaranthus retroflexus. Briefly: Pre-emergence herbicide efficacy at 1280 g/ha, AMARE. The settings on record: visual scoring after about 3 weeks vs untreated controls. The method in brief: as §3
For test [16], the system named is LOLRI: Lolium rigidum. Briefly: Post-emergence herbicidal efficacy at 1280 g/ha, LOLRI. The note with it: visual rating about 3 weeks after treatment vs untreated controls. Here is the method: as §5
For test [17], the system named is MATIN: Matricaria inodora. Briefly: Post-emergence herbicidal efficacy at 1280 g/ha, MATIN. The settings on record: visual rating about 3 weeks after treatment vs untreated controls. Here is the method: as §5
Test [18] has as its system ABUTH: Abutilon theophrasti. Nature of the test: Post-emergence herbicidal efficacy at 80 g/ha, ABUTH. The settings on record: rated visually after about 3 weeks vs untreated controls, 100% = plants have died, 0% = like control plants. Here is the method:
Seeds of monocotyledonous and dicotyledonous weeds and crop plants were placed in sandy loam in plastic or organic planting pots, covered with soil and cultivated in a greenhouse under controlled growth conditions. 2 to 3 weeks after sowing, the test plants were treated at the one-leaf stage. The compounds of the invention, formulated in the form of wettable powders (WP) or as emulsion concentrates (EC), were then sprayed onto the green parts of the plants as aqueous suspension or emulsion with addition of 0.5% additive at a water application rate of 600 l/ha (converted). After the test plants had been kept in the greenhouse under optimum growth conditions for about 3 weeks, the activity of the preparations was rated visually in comparison to untreated controls. For example, 100% activity=the plants have died, 0% activity=like control plants. Tables B1 to B10 below show the effects of selected compounds of the general formula (I) according to Table 1 on various harmful plants and an application rate corresponding to 80 g/ha, which were obtained by the experimental procedure mentioned above.

Turning to `Fc1cnc(Oc2cccc(Br)c2Cc2ncc(Cl)cn2)nc1` [Example 1-54], in test [1], the “Post-emergence efficacy at 1280 g/ha against ABUTH in %” value amounted to 100%. In addition, the “Post-emergence efficacy against AMARE” value in test [2] is 100%. The “Post-emergence efficacy against VERPE” value in test [3] stood at 100%. Further, in [4], the “Pre-emergence efficacy against KCHSC” value is 100%. For the same molecule, in test [5], the “Pre-emergence efficacy against LOLRI” value was determined as 100%. In test [6], the “Pre-emergence efficacy against KCHSC in %” value is 100%. Further, the “Post-emergence efficacy against STEME” value in test [7] is given as 100%. Besides, the “Pre-emergence efficacy against ECHCG” value in test [8] was 100%. The “Pre-emergence efficacy against DIGSA” value in [9] is listed as 100%. Besides, in test [10], the “Pre-emergence efficacy against ALOMY in %” value turned out to be 80%. Also, the “Post-emergence efficacy at 1280 g/ha against ALOMY in %” value in test [11] came out at 90%. Also, the “Pre-emergence efficacy against DIGSA in %” value in [12] amounted to 100%. Also, the results for the “Pre-emergence efficacy against VERPE in %” value in test [13] and in test [14] were 90% and 100%, respectively. In addition, in [15], the “Pre-emergence efficacy against AMARE” value turned out to be 100%.

Consider `Clc1cnc(Cc2c(Cl)cccc2Oc2ncc(Cl)cn2)nc1` [Example 1-56], for which the “Post-emergence efficacy at 1280 g/ha against ABUTH in %” value in [1] was determined as 90%. The “Post-emergence efficacy against AMARE” value in test [2] is recorded as 100%. Moreover, the “Post-emergence efficacy against VERPE” value in [3] was determined as 100%. Besides, the “Pre-emergence efficacy against KCHSC” value in [4] was determined as 100%. In addition, the “Pre-emergence efficacy against LOLRI” value in test [5] is listed as 100%. In addition, in test [6], the “Pre-emergence efficacy against KCHSC in %” value stood at 90%. Besides, the “Post-emergence efficacy against STEME” value in test [7] turned out to be 90%. The “Pre-emergence efficacy against ECHCG” value in [8] was 100%. In [9], the “Pre-emergence efficacy against DIGSA” value turned out to be 100%. Further, in test [12], the “Pre-emergence efficacy against DIGSA in %” value came to 100%. The “Pre-emergence efficacy against VERPE in %” value in test [13] is recorded as 90%; in [14], 100%. The “Pre-emergence efficacy against AMARE” value in [15] came out at 100%. In test [16], the “Post-emergence efficacy against LOLRI” value stood at 90%.

For `N#Cc1cccc(Oc2ncc(F)cn2)c1Cc1ncc(Cl)cn1` [Example 1-59], the “Post-emergence efficacy at 1280 g/ha against ABUTH in %” value in [1] is 100%. In addition, the “Post-emergence efficacy against AMARE” value in [2] was 100%. Moreover, the “Post-emergence efficacy against VERPE” value in test [3] came to 90%. In addition, the “Pre-emergence efficacy against KCHSC” value in test [4] amounted to 100%. For the same molecule, the “Pre-emergence efficacy against LOLRI” value in [5] worked out at 100%. The “Pre-emergence efficacy against KCHSC in %” value in test [6] amounted to 100%. Further, the “Post-emergence efficacy against STEME” value in test [7] turned out to be 100%. In addition, the “Pre-emergence efficacy against ECHCG” value in test [8] came to 100%. Also, in test [9], the “Pre-emergence efficacy against DIGSA” value came out at 100%. For the same molecule, the “Post-emergence efficacy against MATIN” value in test [17] came to 100%. Moreover, the “Pre-emergence efficacy against ALOMY in %” value in test [10] is 80%. The “Pre-emergence efficacy against DIGSA in %” value in test [12] is reported as 100%. Besides, the entries for the “Pre-emergence efficacy against VERPE in %” value in test [13] and in test [14] were 90% and 100%, respectively. Further, in test [15], the “Pre-emergence efficacy against AMARE” value stood at 100%.

In the case of `FC(F)c1cc(-c2ccccc2Cc2ncc(Cl)cn2)on1` [Example 1-133], the “Post-emergence efficacy at 1280 g/ha against ABUTH in %” value in test [1] is 100%. The “Post-emergence efficacy against AMARE” value in test [2] worked out at 100%. For the same molecule, the “Post-emergence efficacy against VERPE” value in test [3] stood at 100%. For the same molecule, the “Pre-emergence efficacy against KCHSC” value in test [4] is listed as 100%. The “Pre-emergence efficacy against LOLRI” value in [5] is on record as 90%. The “Pre-emergence efficacy against KCHSC in %” value in test [6] is given as 100%. For the same molecule, the “Post-emergence efficacy against STEME” value in [7] stood at 100%. In addition, the “Pre-emergence efficacy against ECHCG” value in test [8] was 100%. Also, in test [9], the “Pre-emergence efficacy against DIGSA” value was determined as 100%. Also, in [18], the “Post-emergence efficacy at 80 g/ha against ABUTH in %” value is reported as 80%. Moreover, the “Post-emergence efficacy at 1280 g/ha against ALOMY in %” value in [11] came out at 90%. Also, the “Pre-emergence efficacy against DIGSA in %” value in test [12] is recorded as 100%. The “Pre-emergence efficacy against VERPE in %” value in test [13] worked out at 90%; in test [14] it was 100%. In addition, in test [15], the “Pre-emergence efficacy against AMARE” value came to 100%. Besides, the “Post-emergence efficacy against LOLRI” value in test [16] turned out to be 100%.
